Experimental findings from US9776972B2, “Pyrazole derivatives as arginine methyltransferase inhibitors and uses thereof” (priority 2013, dated 2017) are described below.

SMILES strings stand for the structures. Where a name gives a salt, the structure may show the parent alone.

The term IC50 denotes the concentration that gives 50% inhibition.

The target in the first assay is T1, Human CARM1 (PRMT4) (Homo sapiens, UniProt Q86X55).
T1 construct: Flag-CARM1-His; made in house; host or cells: HEK 293F cells (BacMam baculovirus)
T1 sequence (Q86X55 1-585 isoform Q86X55-1): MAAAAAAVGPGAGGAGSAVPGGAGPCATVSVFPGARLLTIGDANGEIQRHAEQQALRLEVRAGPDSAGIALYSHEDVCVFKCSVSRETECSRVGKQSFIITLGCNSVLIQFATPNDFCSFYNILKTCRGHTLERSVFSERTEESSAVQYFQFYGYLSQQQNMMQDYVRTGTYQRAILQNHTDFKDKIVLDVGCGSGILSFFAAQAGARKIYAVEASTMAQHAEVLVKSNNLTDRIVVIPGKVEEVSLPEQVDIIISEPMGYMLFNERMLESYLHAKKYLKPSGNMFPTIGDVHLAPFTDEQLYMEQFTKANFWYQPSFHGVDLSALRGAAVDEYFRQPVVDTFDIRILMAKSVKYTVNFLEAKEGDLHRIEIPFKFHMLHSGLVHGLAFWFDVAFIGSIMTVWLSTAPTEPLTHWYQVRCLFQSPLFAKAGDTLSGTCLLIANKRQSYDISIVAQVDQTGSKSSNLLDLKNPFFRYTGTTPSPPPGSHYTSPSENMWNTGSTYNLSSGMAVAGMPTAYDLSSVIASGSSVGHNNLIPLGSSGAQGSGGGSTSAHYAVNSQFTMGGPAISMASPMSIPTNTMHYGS
As to the kind of experiment: CARM1 Biochemical Assay (3H-SAM Flashplate, peptide substrate).
Conditions: not given
An excerpt:
S-adenosylmethionine (SAM), S-adenosylhomocysteine (SAH), bicine, Tween20, dimethylsulfoxide (DMSO), bovine skin gelatin (BSG), sodium butyrate and Tris(2-carboxyethyl)phosphine hydrochloride solution (TCEP) were purchased from Sigma-Aldrich at the highest level of purity possible. ^3H-SAM was purchase from American Radiolabeled Chemicals with a specific activity of 80 Ci/mmol. 384-well streptavidin Flashplates were purchased from PerkinElmer.
Peptide representative of human histone H3 residues 16-30 was synthesized with an N-terminal linker-affinity tag motif and a C-terminal amide cap by 21st Century Biochemicals. […] The sequence was Biot-Ahx-[…]-amide and contained a monomethylated arginine at position 26 (SEQ ID NO.: 14).
Recombinant baculovirus were generated according to Bac-to-Bac kit instructions (Life Technologies). […] Infections were carried out at 37° C. for 48 hours, harvested by centrifugation, and stored at −80° C. for purification.
Column was washed with 500 mM NaCl in buffer A and Flag-CARM1-His was eluted with 200 ug/ml FLAG peptide in buffer A. Pooled fractions were dialyzed in 20 mM Tris, 150 mM NaCl, 5% glycerol and 1 mM DTT, pH 7.8.
General Procedure for CARM1 Enzyme Assays on Peptide Substrates.
The assays were all performed in a buffer consisting of 20 mM Bicine (pH=7.6), 1 mM TCEP, 0.005% BSG, and 0.002% Tween 20, prepared on the day of use. […] DMSO (1 ul) was added to Columns 11, 12, 23, 24, rows A-H for the maximum signal control and 1 ul of SAH, a known product and inhibitor of CARM1, was added to columns 11, 12, 23, 24, rows I-P for the minimum signal control. A cocktail (40 ul) containing the CARM1 enzyme was added by Multidrop Combi (Thermo-Fisher). The compounds were allowed to incubate with CARM1 for 30 min at room temperature, then a cocktail (10 ul) containing ^3H-SAM and peptide was added to initiate the reaction (final volume=51 ul). […] The assays were stopped by the addition of non-radiolabeled SAM (10 ul) to a final concentration of 300 uM, which dilutes the ^3H-SAM to a level where its incorporation into the peptide substrate is no longer detectable. 50 ul of the reaction in the 384-well polypropylene plate was then transferred to a 384-well Flashplate and the biotinylated peptides were allowed to bind to the streptavidin surface for at least 1 hour before being washed once with 0.1% Tween20 in a Biotek ELx405 plate washer. The plates were then read in a PerkinElmer TopCount plate reader to measure the quantity of ^3H-labeled peptide bound to the Flashplate surface, measured as disintegrations per minute (dpm) or alternatively, referred to as counts per minute (cpm).
Where dpm=disintegrations per minute, cmpd=signal in assay well, and min and max are the respective minimum and maximum signal controls.
Where top and bottom are the normally allowed to float, but may be fixed at 100 or 0 respectively in a 3-parameter fit. The Hill Coefficient normally allowed to float but may also be fixed at 1 in a 3-parameter fit. Y is the % inhibition and X is the compound concentration.
Take `CNCCN(C)Cc1cnn(C)c1-c1ccc(OC(C)C)cc1` [Compound 244, hydrochloride]: the IC50 was < 100 nM.

The same assay, now with this note: single experiment or average of multiple experiments.
Take `COc1ccc(-c2n[nH]cc2CN(C)CCN)cc1Cl` [Compound 125]: 1440 nM corresponded to half-maximal inhibition (IC50).

For `CN(CCN)Cc1c[nH]nc1-c1ccc(F)c(Cl)c1` [Compound 124], half-maximal inhibition (IC50) was put at 545 nM. Against the preceding compound, the IC50 is about 2.6-fold lower.

`CN(CCN)Cc1c[nH]nc1-c1cccc(Cl)c1F` [Compound 123] had an IC50 of 1870 nM.

Consider `CN(CCN)Cc1n[nH]cc1-c1ccc(Cl)cc1` [Compound 102], for which the IC50 was found to be 1060 nM. This IC50 is about 1.8-fold lower than that of the compound before.

For `CCn1ncc(CN(C)CCNC)c1-c1ccc(F)cc1` [Compound 7], 2660 nM corresponded to half-maximal inhibition (IC50).

Compound `CCNC(=O)c1ccc(-c2n[nH]cc2CN(C)CCN)cc1` [Compound 136] gave an IC50 of 2070 nM.

As for `CN(CCN)Cc1c[nH]nc1-c1cc(Cl)cc(Cl)c1` [Compound 137], the IC50 turned out to be 849 nM.

With `CN(CCN)Cc1c[nH]nc1-c1ccc(Cl)cc1F` [Compound 132], it took 2110 nM to reach half-maximal inhibition (IC50).

For the compound `CC(O)c1ccc(-c2n[nH]cc2CN(C)CCN)cc1` (stereo not shown) [Compound 115], the midpoint of inhibition, the IC50, lay at 3530 nM.

In turn, `CN(CCN)Cc1n[nH]cc1-c1ccc(C2CC2)cc1` [Compound 104] registered an IC50 of 1960 nM.

`Cc1ccc(-c2n[nH]cc2CN(C)CCN)c(F)c1` [Compound 108]: the IC50 came to 1530 nM. The IC50 values of the last two compounds are within 1.5-fold of each other.

`COc1ccc(-c2n[nH]cc2CN(C)CCN)c(F)c1` [Compound 107] yielded a half-inhibitory concentration (IC50) of 2860 nM.

On to `Cc1c(F)cccc1-c1n[nH]cc1CN(C)CCN` [Compound 129], for which the IC50 is 2420 nM.

The compound `CN(CCN)Cc1c[nH]nc1-c1ccc(C(F)(F)F)c(F)c1` [Compound 141] displayed an IC50 of 1370 nM.

The compound `CC(C)c1ccc(-c2c[nH]nc2CN(C)CCN)cc1` [Compound 101] came in with an IC50 of 4760 nM.

For `CC(C)Oc1ccc(-c2c[nH]nc2CN(C)CCN)cc1F` [Compound 144], 4620 nM corresponded to half-maximal inhibition (IC50).

`COc1cc(-c2n[nH]cc2CN(C)CCN)ccc1F` [Compound 142] returned an IC50 of 1290 nM. This IC50 is about 3.6-fold lower than that of the compound before.

The compound `CN(CCN)Cc1c[nH]nc1-c1ccc(C2CC2)cc1` [Compound 116] had an IC50 of 1220 nM. This IC50 and that of the compound before are within 1.5-fold of each other.

Regarding `CN(CCN)Cc1c[nH]nc1-c1cc(F)cc(Cl)c1` [Compound 121], the half-inhibitory concentration (IC50) amounted to 216 nM.

For `COc1cc(Cl)cc(-c2n[nH]cc2CN(C)CCN)c1` [Compound 127], the midpoint of inhibition, the IC50, lay at 1120 nM.

Take `CC(C)Oc1ccc(-c2n[nH]cc2CN(C)CCN)cc1F` [Compound 97]: the IC50 was 511 nM.

Compound `Cc1cc(Cl)ccc1-c1n[nH]cc1CN(C)CCN` [Compound 133] registered an IC50 of 4270 nM.

The compound `CN(CCN)Cc1n[nH]cc1-c1ccc(OC(F)(F)F)cc1` [Compound 105] yielded a half-inhibitory concentration (IC50) of 3060 nM.

On to `CN(CCN)Cc1n[nH]cc1-c1ccc(C(F)(F)F)cc1` [Compound 103], for which half-maximal inhibition (IC50) required 1480 nM.

The compound `COc1cccc(-c2n[nH]cc2CN(C)CCN)c1` [Compound 130] returned an IC50 of 2410 nM. Against the preceding compound, the IC50 is about 1.6-fold higher.

In turn, `CNCCN(C)Cc1cnn(C)c1-c1ccc(OC(C)C)cc1` [Compound 244, hydrochloride] displayed a half-inhibitory concentration (IC50) of 92.5 nM.

Compound `Cc1cccc(-c2n[nH]cc2CN(C)CCN)c1` [Compound 131] showed an IC50 of 1180 nM. This IC50 lies about 13-fold higher than the previous one.

Take `CN(CCN)Cc1n[nH]cc1-c1ccc(OC2CC2)cc1` [Compound 119]: 441 nM corresponded to half-maximal inhibition (IC50). Compared with the last compound, the IC50 is about 2.7-fold lower.

In the case of `CN(CCN)Cc1c[nH]nc1-c1ccc(C(F)(F)F)c(Cl)c1` [Compound 117], 602 nM corresponded to half-maximal inhibition (IC50).

On to `CN(CCN)Cc1c[nH]nc1-c1ccc(F)cc1F` [Compound 99], for which the IC50 was found to be 7610 nM.

In the case of `Cc1cc(C#N)ccc1-c1n[nH]cc1CN(C)CCN` [Compound 110], the midpoint of inhibition, the IC50, lay at 8770 nM.

The compound `CN(CCN)Cc1c[nH]nc1-c1cccc(Cl)c1` [Compound 122] had an IC50 of 405 nM.

Compound `CN(CCN)Cc1n[nH]cc1-c1ccc(C#N)cc1` [Compound 100] registered an IC50 of 4130 nM.

`CN(CCN)Cc1c[nH]nc1-c1ccc(C2CCOCC2)cc1` [Compound 98] yielded an IC50 of 439 nM.

Compound `CCn1cc(CN(C)CCNC)c(-c2ccc(F)cc2)n1` [Compound 8] yielded an IC50 of 3460 nM.

The compound `CN(CCN)Cc1c[nH]nc1-c1ccc(OCC(F)(F)F)cc1` [Compound 96] came in with an IC50 of 76.5 nM.

Turning to `CC(=O)c1cccc(-c2n[nH]cc2CN(C)CCN)c1` [Compound 112], half-maximal inhibition (IC50) required 2440 nM.

For the compound `CN(CCN)Cc1c[nH]nc1-c1cc(F)cc(F)c1` [Compound 111], half-maximal inhibition (IC50) was put at 458 nM.

In turn, `COc1ccccc1-c1n[nH]cc1CN(C)CCN` [Compound 109] showed an IC50 of 5210 nM. This IC50 lies about 11-fold higher than the previous one.

`CN(CCN)Cc1c[nH]nc1-c1ccc(Cl)c(F)c1` [Compound 118] showed an IC50 of 114 nM.

The compound `CCN(CC)C(=O)c1ccc(-c2n[nH]cc2CN(C)CCN)cc1` [Compound 143] displayed an IC50 of 5850 nM.

With `CN(CCN)Cc1n[nH]cc1-c1ccc(OC(F)F)cc1` [Compound 138], the IC50 worked out at 2700 nM. Compared with the last compound, the IC50 is about 2.2-fold lower.

`CN(CCN)Cc1c[nH]nc1-c1ccc(OC2CC2)cc1` [Compound 114] registered an IC50 of 332 nM.

The compound `COc1ccc(-c2n[nH]cc2CN(C)CCN)cc1F` [Compound 134] showed a concentration for half-maximal inhibition (IC50) of 2600 nM. This IC50 lies about 7.8-fold higher than the previous one.

With `Cc1ccc(-c2n[nH]cc2CN(C)CCN)cc1Cl` [Compound 126], it took 102 nM to reach half-maximal inhibition (IC50).
